US20050096360A1, “Inhibitors of semicarbazide-sensitive amine oxidase (SSAO) and VAP-1 mediated adhesion useful for treatment of diseases” (priority 2003, published 2005)
Structures can show the parent of a compound that is named as a salt. Where two headings read alike, the source gives them in different places.

Columns and labels:
[1] = tested on: collagen-induced arthritis (CIA) in mice; assay: Antibody-mediated collagen-induced arthritis in mice; type: in vivo; settings: 20 mg/kg i.p. twice daily
Description: The murine CIA model used in this study is called antibody-mediated CIA, and can be induced by i.v. injection of a combination of different anti-type II collagen monoclonal antibodies (Terato K., et al. (1995). Autoimmunity. 22:137).
In this example, arthrogen-collagen-induced arthritis antibody kits were purchased from Chemicon International (Temecula, Calif.) and arthritis was induced using the manufacturer's protocol. Mice were injected i.v. with a cocktail of 4 anti-collagen Type II monoclonal antibodies (0.5 mg each) on day 0, followed by i.p. injection of 25 μg lipopolysaccharide (LPS) on day 2. Mice develop swollen wrists, ankles, and digits 3-4 days after LPS injection, with disease incidence of 90% by day 7. Severity of arthritis in each limb was scored for 12 days as follows: 0=normal; 1=mild redness, slight swelling of ankle or wrist; 2=moderate redness and swelling of ankle or wrist; 3=severe redness and swelling of some digits, ankle and paw; 4=maximally inflamed limb. Animals were divided in 3 groups of 6 animals: vehicle, methotrexate (MTX)-treated, and compound-treated. Animals in the vehicle group were injected i.p. with phosphate buffer saline (PBS), twice daily for 12 days (starting on day 0). MTX (3 mg/kg) was administered i.p. starting on day 0 and continuing every other day (Mon., Weds., Fri.) for the duration of the experiment.
For each of the two sets of data (arthritis score and paw swelling), a repeated measure analysis was performed to assess the treatment effect.
The relative RT-PCR approach was used. To perform this experiment, a kit from Ambion (USA) was used that employs 18S ribosomal RNA (rRNA) as an internal control. In addition to the rRNA primers, the kit also provides specific primers for the amplification of the different cytokines to be analyzed. […] At the end of the study, animals were euthanized and the right hind paws were extracted and frozen. Total RNA was isolated using 1 ml of Trizol reagent (Invitrogen, USA) per 50-100 mg tissue according to the manufacturer's instructions. […]

[2] = tested on: carrageenan-induced paw edema in Sprague Dawley rats; assay: Carrageenan-induced rat paw edema; type: in vivo; settings: for paw swelling: 100 mg/kg i.p. 15 minutes prior to carrageenan, 60, 120, 180 min, p<0.05
Description: Female Sprague Dawley rats were used and compounds of the invention were injected i.p. at 100 mg/kg 15 minutes prior to carrageenan exposure. The control group was injected with an equal volume of vehicle (PBS). Edema in the paws was induced as previously described by injecting 50 μl of a 0.5% solution of carrageenan (Type IV Lambda, Sigma) in saline with a 27-G needle s.c. in the right foot pat. (See Whiteley P. E. and Dalrymple S. A. (1998) Models of inflammation: carrageenan-induced paw edema in the rat, in Current Protocols in Pharmacology. Enna S J, Williams M, Ferkany J W, Kenaki T, Porsolt R E and Sullivan J P, eds., pp 5.4.1-5.4.3, John Wiley & Sons, New York) The size of the tested foot of each animal was measured volumetrically, before induction of edema, and at 60, 120, and 180 min after carrageenan induction.
Briefly, SSAO inhibitors (30 mg/kg), indomethacin (3 mg/kg) and PBS were administered orally to rats 1 hour after carrageenan injections.
To investigate further the role of SSAO inhibition in the inflammatory response, studies were carried out to assess the effect of SSAO inhibition on prostaglandin E2 (PGE2) levels. Animals were divided into four therapeutic groups of eight rats each. […] The fourth group received 3 mg/kg of dexamethasone, i.p. 1 hour before paw inflammation. Three hours after carrageenan injection, rats were asphyxiated with CO2 and their hind paws removed. The paws were lacerated with a scalpel, suspended off the bottom of a polypropylene 1.5 ml tube with a micropipette tip and centrifuged to express the inflammatory fluid. The volume collected from each paw was determined and the fluid was analyzed by ELISA for PGE2 production using a commercial kit (R&D Systems, Minneapolis, Minn.) according to the manufacturer's instructions. […] Data were analyzed with GraphPad Prism software (San Diego, Calif.) by Dunnett's test following analysis of variance.

[3] = Acute toxicity studies in mice; type: in vivo; settings: female, C57B1/6, mouse, in vivo, Day 7 values
Description: (§1) Intraperitoneal (i.p.) and intravenous (i.v.) LD50 values for the compounds of Examples 8 and 10, as well as mofegiline, the allylamine compound described in Example 18, were determined in mice. Six-week old C57B1/6 female mice were divided in groups of five and administered a single i.p or i.v. injection of compound dissolved in PBS (10-100 mg/kg in 100 ul i.v.; 30-500 mg/kg in 200 ul i.p.). Control groups were administered the same volume of PBS i.p. or i.v. Appearance and overt behavior were noted daily, and body weight was measured before compound administration (Day 1) and on Days, 3, 5 and 7. After seven days, animals were euthanized and their liver, spleen and kidneys weighted.
(§2) Acute toxicity effects for mofegiline included tremors (40 mg/kg i.v.; 100 mg/kg i.p.) and clonic convulsions and labored breathing (100 mg/kg i.v.; 200 mg/kg i.p.). […] All deaths occurred within 24 hours after drug administration. […] Thus, there is no indication of the cause of death for any of the compounds tested.

C57B1/6 female mice = assay: Acute toxicity studies in mice; type: in vivo; settings: for acute toxicity effects observed: 100 mg/kg i.v.; for dose causing convulsions and labored breathing: i.p. (see Table 2)
Description: as §1, §2

[4] = biological target: T1, SSAO activity in rat aorta and lung (Rattus norvegicus, UniProt O08590); assay: In vivo inhibition of SSAO after single oral dose, radioactive assay; settings: 4 hrs after treatment
T1 construct: the animals were euthanized and their aortas and lungs removed and frozen in liquid nitrogen; from tissue; host or cells: aorta and lung of female Sprague Dawley rats
T1 sequence (O08590 1-763): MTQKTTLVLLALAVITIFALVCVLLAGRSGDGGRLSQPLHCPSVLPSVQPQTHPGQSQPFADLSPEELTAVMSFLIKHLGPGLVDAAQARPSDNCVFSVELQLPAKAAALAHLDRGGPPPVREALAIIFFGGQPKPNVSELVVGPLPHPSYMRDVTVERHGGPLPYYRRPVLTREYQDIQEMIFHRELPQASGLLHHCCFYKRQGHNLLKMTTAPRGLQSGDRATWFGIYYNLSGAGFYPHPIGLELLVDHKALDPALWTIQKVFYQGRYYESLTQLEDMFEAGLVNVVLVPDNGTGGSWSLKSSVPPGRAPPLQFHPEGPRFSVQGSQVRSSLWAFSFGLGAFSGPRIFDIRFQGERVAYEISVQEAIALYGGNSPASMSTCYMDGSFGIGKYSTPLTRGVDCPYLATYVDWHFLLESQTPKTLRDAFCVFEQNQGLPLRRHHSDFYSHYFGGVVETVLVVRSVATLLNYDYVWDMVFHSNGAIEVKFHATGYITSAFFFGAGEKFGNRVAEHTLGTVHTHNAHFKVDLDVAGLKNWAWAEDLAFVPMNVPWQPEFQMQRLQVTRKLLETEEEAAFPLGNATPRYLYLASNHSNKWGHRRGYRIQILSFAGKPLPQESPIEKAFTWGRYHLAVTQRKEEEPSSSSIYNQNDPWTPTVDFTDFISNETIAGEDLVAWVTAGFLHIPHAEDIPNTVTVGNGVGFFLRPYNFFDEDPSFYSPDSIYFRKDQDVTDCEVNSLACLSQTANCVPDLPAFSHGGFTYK
Description: In vivo inhibition of SSAO was assessed in rat aorta and lungs, two of the tissues where SSAO activity is highest. Six week old female Sprague Dawley rats were administered 0, 0.1, 1, 10 and 50 mg/kg of the compound of example 8 in 2.5 ml/kg PBS by oral gavage. Four hours after compound administration the animals were euthanized and their aortas and lungs removed and frozen in liquid nitrogen. Tissues were homogenized in 0.1 M potassium phosphate pH 7.8 buffer (30 ml/g for aorta and 20 ml/g for lung) and centrifuged at 1000×g for 15 min. Supernatants were collected and used in the radioactive assay following the protocol described by Lizcano J. M. et al. (1998) Biochem. J. 331:69. Enzymatic reactions were initiated by incubating a 200 μl aliquot of the tissue homogenate with 20 μl of 0.4 mM ^14C-labeled benzylamine substrate (6 mCi/mmol specific activity, Pharmacia) for 30 min at RT. The assay was stopped by addition of 100 μl of 2 M citric acid, the assay volume was extracted with 5 ml toluene:ethyl acetate (1:1) containing 0.6% (w/v) 2,5-diphenyloxdazole (PPO), and an aliquot of the organic layer was counted by liquid scintillation. […] These inhibitors were added to the tissue supernatant prior to addition of benzylamine.

[5] = ip, single i.p. injection, read-out: LD50 intraperitoneal
[6] = iv, single i.v. injection, read-out: LD50 intravenous

SMILES | final arthritis score ([1]; day 0-11, p=0.0046 vs PBS) | paw swelling ([1]; day 0-11, p=0.0060 vs PBS) | levels of TNFα mRNA in the paws (relative RT-PCR, TNFα:18S rRNA) ([1]; right hind paws at end of study) | PGE2 production in paw exudate ([2]; 50 mg/kg oral 1 hour prior to carrageenan, 3 hours after injection, equivalent to dexamethasone) | paw volume ([2]; 50 mg/kg oral 1 hour prior to carrageenan, FIG. 11A) | paw swelling [2] | LD50 at 7 days [3, 5] | LD50 at 7 days [3, 6] | acute toxicity effects observed (C57B1/6 female mice) | dose causing convulsions and labored breathing (C57B1/6 female mice) | ED50, in vivo inhibition of SSAO activity in aorta ([4]; rat aorta) | ED50, in vivo inhibition of SSAO activity in lung ([4]; rat lung)
C=C(CNN)c1ccccc1 [Example 2, Hydrochloride] | clearly reduced | clearly reduced | able to reduce | significantly reduce | reduces | clearly and significantly reduced | – | – | – | – | – | –
C=C(CNN)c1ccc(F)cc1.Cl [Example 8, N-[2-(4′-fluorophenyl)-allyl]-hydrazine Hydrochloride] | – | – | – | – | – | clearly and significantly reduced | 350 mg/kg | > 100 mg/kg | only tremor | greater than 350 mg/kg | 5 mg/kg | 0.72 mg/kg
Cl.NNC/C(=C/F)c1ccccc1 [Example 10, (E)-1-fluoro-2-phenyl-3-hydrazinopropene Hydrochloride] | – | – | – | – | – | – | 250 mg/kg | > 100 mg/kg | only tremor | greater than 250 mg/kg | – | –
